Data as given in the supplement of paper PMC10307832.

Assays:
Experiment in all cases: relative viability (nuclei count vs DMSO), 5 days (fraction); higher = more cells survive
A-427 = system: A-427
Procedure, shortened: (§1)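 Values are medians from duplicate plates. Each reflects relative viability, defined as the nuclei count of treated wells over that of vehicle wells. Lung cancer cell lines in 1536-well plates were pin-tool dosed one day after seeding with one drug alone or with a fixed anchor-drug dose plus five library-drug doses (not always all listed) in √10 steps, then fixed, stained and imaged at 4× after 5 days.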

CAL-12T = system: CAL-12T
Procedure, shortened: as §1

COR-L 105 = system: COR-L 105
Procedure, shortened: as §1

EMC-BAC-2 = system: EMC-BAC-2
Procedure, shortened: as §1

HARA = system: HARA
Procedure, shortened: as §1

HCC-366 = system: HCC-366
Procedure, shortened: as §1

HCC-827 = system: HCC-827
Procedure, shortened: as §1

HOP-62 = system: HOP-62
Procedure, shortened: as §1

LCLC-103H = system: LCLC-103H
Procedure, shortened: as §1

NCI-H1355 = system: NCI-H1355
Procedure, shortened: as §1

NCI-H1395 = system: NCI-H1395
Procedure, shortened: as §1

NCI-H1437 = system: NCI-H1437
Procedure, shortened: as §1

NCI-H1755 = system: NCI-H1755
Procedure, shortened: as §1

NCI-H1792 = system: NCI-H1792
Procedure, shortened: as §1

NCI-H1915 = system: NCI-H1915
Procedure, shortened: as §1

NCI-H1975 = system: NCI-H1975
Procedure, shortened: as §1

NCI-H2009 = system: NCI-H2009
Procedure, shortened: as §1

NCI-H2228 = system: NCI-H2228
Procedure, shortened: as §1

NCI-H23 = system: NCI-H23
Procedure, shortened: as §1

NCI-H460 = system: NCI-H460
Procedure, shortened: as §1

NCI-H522 = system: NCI-H522
Procedure, shortened: as §1

NCI-H727 = system: NCI-H727
Procedure, shortened: as §1

SK-LU-1 = system: SK-LU-1
Procedure, shortened: as §1

SW 1573 = system: SW 1573
Procedure, shortened: as §1

Structure (SMILES): C[C@@H]1CN(CC(=O)Nc2ccc3c(c2)Cc2cccc(-c4cc(=O)cc(N5CCOCC5)o4)c2S3)C[C@H](C)O1 + CC(=O)c1c(C)c2cnc(Nc3ccc(N4CCNCC4)cn3)nc2n(C2CCCC2)c1=O [Palbociclib] (partner 0.5 µM)
- relative viability (A-427; first compound 0.04 µM): 0.428
- relative viability (A-427; first compound 0.1265 µM): 0.531
- relative viability (A-427; first compound 0.4 µM): 0.537
- relative viability (A-427; first compound 4 µM): 0.593
- relative viability (CAL-12T; first compound 0.04 µM): 0.53
- relative viability (CAL-12T; first compound 0.1265 µM): 0.411
- relative viability (CAL-12T; first compound 0.4 µM): 0.44
- relative viability (CAL-12T; first compound 4 µM): 0.28
- relative viability (COR-L 105; first compound 0.04 µM): 0.391
- relative viability (COR-L 105; first compound 0.1265 µM): 0.424
- relative viability (COR-L 105; first compound 0.4 µM): 0.397
- relative viability (COR-L 105; first compound 4 µM): 0.328
- relative viability (EMC-BAC-2; first compound 0.04 µM): 0.502
- relative viability (EMC-BAC-2; first compound 0.1265 µM): 0.529
- relative viability (EMC-BAC-2; first compound 0.4 µM): 0.502
- relative viability (EMC-BAC-2; first compound 4 µM): 0.545
- relative viability (HARA; first compound 0.04 µM): 0.234
- relative viability (HARA; first compound 0.1265 µM): 0.186
- relative viability (HARA; first compound 0.4 µM): 0.272
- relative viability (HARA; first compound 4 µM): 0.226
- relative viability (HCC-366; first compound 0.04 µM): 0.386
- relative viability (HCC-366; first compound 0.1265 µM): 0.467
- relative viability (HCC-366; first compound 0.4 µM): 0.395
- relative viability (HCC-366; first compound 4 µM): 0.184
- relative viability (HCC-827; first compound 0.04 µM): 0.502
- relative viability (HCC-827; first compound 0.1265 µM): 0.49
- relative viability (HCC-827; first compound 0.4 µM): 0.433
- relative viability (HCC-827; first compound 4 µM): 0.442
- relative viability (HOP-62; first compound 0.04 µM): 0.398
- relative viability (HOP-62; first compound 0.1265 µM): 0.43
- relative viability (HOP-62; first compound 0.4 µM): 0.412
- relative viability (HOP-62; first compound 4 µM): 0.405
- relative viability (LCLC-103H; first compound 0.04 µM): 0.441
- relative viability (LCLC-103H; first compound 0.1265 µM): 0.47
- relative viability (LCLC-103H; first compound 0.4 µM): 0.446
- relative viability (LCLC-103H; first compound 4 µM): 0.47
- relative viability (NCI-H1355; first compound 0.04 µM): 0.397
- relative viability (NCI-H1355; first compound 0.1265 µM): 0.4
- relative viability (NCI-H1355; first compound 0.4 µM): 0.404
- relative viability (NCI-H1355; first compound 4 µM): 0.385
- relative viability (NCI-H1395; first compound 0.1265 µM): 0.626
- relative viability (NCI-H1395; first compound 0.4 µM): 0.575
- relative viability (NCI-H1395; first compound 4 µM): 0.595
- relative viability (NCI-H1437; first compound 0.04 µM): 0.309
- relative viability (NCI-H1437; first compound 0.1265 µM): 0.282
- relative viability (NCI-H1437; first compound 0.4 µM): 0.327
- relative viability (NCI-H1437; first compound 4 µM): 0.255
- relative viability (NCI-H1755; first compound 0.04 µM): 0.475
- relative viability (NCI-H1755; first compound 0.1265 µM): 0.449
- relative viability (NCI-H1755; first compound 0.4 µM): 0.432
- relative viability (NCI-H1755; first compound 4 µM): 0.399
- relative viability (NCI-H1792; first compound 0.04 µM): 0.61
- relative viability (NCI-H1792; first compound 0.1265 µM): 0.594
- relative viability (NCI-H1792; first compound 0.4 µM): 0.658
- relative viability (NCI-H1792; first compound 4 µM): 0.563
- relative viability (NCI-H1915; first compound 0.04 µM): 0.517
- relative viability (NCI-H1915; first compound 0.1265 µM): 0.526
- relative viability (NCI-H1915; first compound 0.4 µM): 0.507
- relative viability (NCI-H1915; first compound 4 µM): 0.311
- relative viability (NCI-H1975; first compound 0.04 µM): 0.578
- relative viability (NCI-H1975; first compound 0.1265 µM): 0.58
- relative viability (NCI-H1975; first compound 0.4 µM): 0.395
- relative viability (NCI-H1975; first compound 4 µM): 0.487
- relative viability (NCI-H2009; first compound 0.04 µM): 0.216
- relative viability (NCI-H2009; first compound 0.1265 µM): 0.214
- relative viability (NCI-H2009; first compound 0.4 µM): 0.206
- relative viability (NCI-H2009; first compound 4 µM): 0.206
- relative viability (NCI-H2228; first compound 0.04 µM): 0.993
- relative viability (NCI-H2228; first compound 0.1265 µM): 0.743
- relative viability (NCI-H2228; first compound 0.4 µM): 0.916
- relative viability (NCI-H2228; first compound 4 µM): 0.605
- relative viability (NCI-H23; first compound 0.04 µM): 0.455
- relative viability (NCI-H23; first compound 0.1265 µM): 0.538
- relative viability (NCI-H23; first compound 0.4 µM): 0.436
- relative viability (NCI-H23; first compound 4 µM): 0.495
- relative viability (NCI-H460; first compound 0.04 µM): 0.271
- relative viability (NCI-H460; first compound 0.1265 µM): 0.155
- relative viability (NCI-H460; first compound 0.4 µM): 0.137
- relative viability (NCI-H460; first compound 4 µM): 0.143
- relative viability (NCI-H522; first compound 0.04 µM): 0.934
- relative viability (NCI-H522; first compound 0.1265 µM): 0.839
- relative viability (NCI-H522; first compound 0.4 µM): 1.06
- relative viability (NCI-H522; first compound 4 µM): 0.972
- relative viability (NCI-H727; first compound 0.04 µM): 0.852
- relative viability (NCI-H727; first compound 0.1265 µM): 0.596
- relative viability (NCI-H727; first compound 0.4 µM): 0.679
- relative viability (NCI-H727; first compound 4 µM): 0.675
- relative viability (SK-LU-1; first compound 0.04 µM): 0.434
- relative viability (SK-LU-1; first compound 0.1265 µM): 0.372
- relative viability (SK-LU-1; first compound 0.4 µM): 0.367
- relative viability (SK-LU-1; first compound 4 µM): 0.387
- relative viability (SW 1573; first compound 0.04 µM): 0.501
- relative viability (SW 1573; first compound 0.1265 µM): 0.337
- relative viability (SW 1573; first compound 0.4 µM): 0.393
- relative viability (SW 1573; first compound 4 µM): 0.264
